Source: patent US20260184710A1, “CASITAS B-LINEAGE LYMPHOMA PROTOONCOGENE B (CBL-B) DEGRADING COMPOUNDS AND ASSOCIATED METHODS OF USE” (Arvinas Operations, Inc., priority 2022, published 2026)

Tests used:
Cbl-b [1] = biological target: T1, Cbl-b (Homo sapiens, UniProt Q13191); assay: Cbl-b Degradation Method A (FACS, anti-Cbl-b antibody staining); type: cell-based; details: Cbl-b-HiBit KI Jurkat Cells, incubated at least 20 hours; for DC50: half maximal degradation, read-out: Cbl-b Degredation Method A IC50; for Dmax: Jurkat, maximum degradation observed, read-out: Cbl-b Degredation Method A Dmax (%)
T1 construct: Cbl-b-HiBit KI Jurkat Cells were purchased from Promega; host or cells: Cbl-b-HiBiT knock-in Jurkat cells
T1 sequence (Q13191 whole entry): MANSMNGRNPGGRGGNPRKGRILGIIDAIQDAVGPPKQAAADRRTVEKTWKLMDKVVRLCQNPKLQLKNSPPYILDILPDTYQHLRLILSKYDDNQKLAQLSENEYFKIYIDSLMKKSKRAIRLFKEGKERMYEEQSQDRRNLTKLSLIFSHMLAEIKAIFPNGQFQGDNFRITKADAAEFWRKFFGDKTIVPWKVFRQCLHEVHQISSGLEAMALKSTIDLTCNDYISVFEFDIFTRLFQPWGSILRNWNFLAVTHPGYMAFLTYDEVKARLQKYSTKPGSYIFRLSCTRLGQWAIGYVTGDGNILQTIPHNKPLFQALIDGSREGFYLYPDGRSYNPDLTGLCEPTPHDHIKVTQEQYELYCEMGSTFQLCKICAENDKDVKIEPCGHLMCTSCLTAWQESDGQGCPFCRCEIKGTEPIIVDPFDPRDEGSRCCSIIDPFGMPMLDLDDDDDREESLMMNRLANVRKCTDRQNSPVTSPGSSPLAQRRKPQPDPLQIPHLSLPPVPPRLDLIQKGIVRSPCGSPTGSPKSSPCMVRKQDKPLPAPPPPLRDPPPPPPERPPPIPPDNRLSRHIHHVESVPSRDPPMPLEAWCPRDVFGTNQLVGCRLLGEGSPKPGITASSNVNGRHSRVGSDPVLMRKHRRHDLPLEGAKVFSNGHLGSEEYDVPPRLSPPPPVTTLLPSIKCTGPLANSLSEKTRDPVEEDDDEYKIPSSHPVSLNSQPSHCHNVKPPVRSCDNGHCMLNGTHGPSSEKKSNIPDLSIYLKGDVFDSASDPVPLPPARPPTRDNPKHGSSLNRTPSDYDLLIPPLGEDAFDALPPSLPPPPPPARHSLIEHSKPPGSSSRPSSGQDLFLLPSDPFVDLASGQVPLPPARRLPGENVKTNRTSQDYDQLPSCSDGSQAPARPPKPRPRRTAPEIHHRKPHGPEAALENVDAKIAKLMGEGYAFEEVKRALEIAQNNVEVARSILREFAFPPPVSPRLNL
Summary of the method: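 Cbl-b-HiBit KI Jurkat cells treated with compound for at least 20 h at 37 °C, then fixed, permeabilized and stained with anti-Cbl-b antibody plus anti-rabbit AF488 secondary. Cbl-b levels read by FACS; DC50 and Dmax (percent of control) derived.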

Cbl-b [2] = biological target: T1, Cbl-b; assay: Cbl-b Degradation Method B (Nano-Glo HiBiT lytic detection); type: cell-based; details: Cbl-b-HiBit KI Jurkat Cells, incubated at least 6-24 hours; for DC50: half maximal degradation, read-out: Cbl-b Degredation Method B IC50; for Dmax: read-out: Cbl-b Degredation Method B Dmax (%)
Summary of the method: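 Cbl-b-HiBiT knock-in Jurkat cells (20,000/well) were treated after ~24 h plating with an 11-point 1:3 series for 6-24 h at 37° C. Remaining Cbl-b measured by Nano-Glo HiBiT lytic luminescence. DC50 and Dmax expressed as % of control.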

| SMILES | DC50 (Cbl-b [1]) [nM] | DC50 (Cbl-b [2]) [nM] | Dmax (Cbl-b [2]; maximum degradation observed) [%] | Dmax (Cbl-b [1]) [%] | Cbl-b Degredation Method B Dmax (%) (Cbl-b [2]; maximum degradation observed) |
| --- | --- | --- | --- | --- | --- |
| C[C@H]1C[C@@H](CN2CCN(c3ccc4c(c3)C(=O)N(C3CCC(=O)NC3=O)C4=O)CC2)CN(Cc2cc3c(c(C(F)(F)F)c2)CN(c2cccc(C4(Cc5nncn5C)COC4)c2)C3=O)C1 (stereo partly drawn) [Example 85, 2-(2,6-dioxopiperidin-3-yl)-5-(4-{[(3R,5S)-5-methyl-1-{[2-(3-{3-[(4-methyl-4H-1,2,4-triazol-3-yl)methyl]oxetan-3-yl}phenyl)-3-oxo-7-(trifluoromethyl)-2,3-dihydro-1H-isoindol-5-yl]methyl}piperidin-3-yl]methyl}piperazin-1-yl)-2,3-dihydro-1H-isoindole-1,3-dione] | 5 to 50 | 5 to 50 | > 70 | – | – |
| Cn1cnnc1CC1(c2cccc(NC(=O)c3cc(N4CC5(CCN(CC6CCN(c7ccc8c(c7)C(=O)N(C7CCC(=O)NC7=O)C8=O)CC6)CC5)C4)nc(C4CC4)n3)c2)COC1 (centres unmarked) [Example 18, 2-cyclopropyl-6-[7-[[1-[2-(2,6-dioxo-3-piperidyl)-1,3-dioxo-isoindolin-5-yl]-4-piperidyl]methyl]-2,7-diazaspiro[3.5]nonan-2-yl]-N-[3-[3-[(4-methyl-1,2,4-triazol-3-yl)methyl]oxetan-3-yl]phenyl]pyrimidine-4-carboxamide] | 50 to 500 | > 500 | – | < 35 | – |
| Cn1cnnc1CC1(c2cccc(N3Cc4c(cc(CN5CCC(CN6CCC7(CC6)CCN(c6ccc8c(c6)C(=O)N(C6CCC(=O)NC6=O)C8=O)CC7)CC5)cc4C(F)(F)F)C3=O)c2)COC1 (centres unmarked) [Example 29, 2-(2,6-dioxopiperidin-3-yl)-5-{9-[(1-{[2-(3-{3-[(4-methyl-4H-1,2,4-triazol-3-yl)methyl]oxetan-3-yl}phenyl)-3-oxo-7-(trifluoromethyl)-2,3-dihydro-1H-isoindol-5-yl]methyl}piperidin-4-yl)methyl]-3,9-diazaspiro[5.5]undecan-3-yl}-2,3-dihydro-1H-isoindole-1,3-dione] | > 500 | > 500 | – | – | – |
| CC1CC(CN2CC3(CCN(c4ccc5c(c4)C(=O)N(C4CCC(=O)NC4=O)C5=O)CC3)C2)CN(Cc2cc3c(c(C(F)(F)F)c2)CN(c2cccc(C4(Cc5nncn5C)COC4)c2)C3=O)C1 (centres unmarked) [Example 92, 2-(2,6-dioxopiperidin-3-yl)-5-{2-[(5-methyl-1-{[2-(3-{3-[(4-methyl-4H-1,2,4-triazol-3-yl)methyl]oxetan-3-yl}phenyl)-3-oxo-7-(trifluoromethyl)-2,3-dihydro-1H-isoindol-5-yl]methyl}piperidin-3-yl)methyl]-2,7-diazaspiro[3.5]nonan-7-yl}-2,3-dihydro-1H-isoindole-1,3-dione] | > 500 | > 500 | – | – | – |
| Cn1cnnc1CC1(c2cccc(N3Cc4c(cc(N5CC6(CCN(CC7CCN(c8cccc9c8CN(C8CCC(=O)NC8=O)C9=O)CC7)CC6)C5)cc4C(F)(F)F)C3=O)c2)COC1 (centres unmarked) [Example 119, 3-{4-[4-({2-[2-(3-{3-[(4-methyl-4H-1,2,4-triazol-3-yl)methyl]oxetan-3-yl}phenyl)-3-oxo-7-(trifluoromethyl)-2,3-dihydro-1H-isoindol-5-yl]-2,7-diazaspiro[3.5]nonan-7-yl}methyl)piperidin-1-yl]-1-oxo-2,3-dihydro-1H-isoindol-2-yl}piperidine-2,6-dione] | 5 to 50 | < 5 | < 35 | < 35 | – |
| Cn1cnnc1CC1(c2cccc(N3Cc4c(cc(N5CC6(CN(c7ccc8c(c7)C(=O)N(C7CCC(=O)NC7=O)C8=O)C6)C5)cc4C(F)(F)F)C3=O)c2)COC1 (centres unmarked) [Example 123, 2-(2,6-dioxopiperidin-3-yl)-5-{6-[2-(3-{3-[(4-methyl-4H-1,2,4-triazol-3-yl)methyl]oxetan-3-yl}phenyl)-3-oxo-7-(trifluoromethyl)-2,3-dihydro-1H-isoindol-5-yl]-2,6-diazaspiro[3.3]heptan-2-yl}-2,3-dihydro-1H-isoindole-1,3-dione] | 50 to 500 | > 500 | – | 35 to 70 | – |
| Cn1cnnc1CC1(c2cccc(N3Cc4c(cc(N5CC(OCC6CCN(c7ccc8c(c7)CN(C7CCC(=O)NC7=O)C8=O)CC6)C5)cc4C(F)(F)F)C3=O)c2)COC1 (centres unmarked) [Example 21, 3-[5-[4-[[1-[2-[3-[3-[(4-methyl-1,2,4-triazol-3-yl)methyl]oxetan-3-yl]phenyl]-3-oxo-7-(trifluoromethyl)isoindolin-5-yl]azetidin-3-yl]oxymethyl]-1-piperidyl]-1-oxo-isoindolin-2-yl]piperidine-2,6-dione] | > 500 | > 500 | – | – | – |
| Cn1cnnc1CC1(c2cccc(N3Cc4c(cc(CN5CCC[C@H](CN6CCC(CN7CCC(CN8CCN(c9ccc%10c(c9)C(=O)N(C9CCC(=O)NC9=O)C%10=O)CC8)CC7)CC6)C5)cc4C(F)(F)F)C3=O)c2)COC1 (stereo partly drawn) [Example 97, 2-(2,6-dioxopiperidin-3-yl)-5-[4-({1-[(1-{[(3R)-1-{[2-(3-{3-[(4-methyl-4H-1,2,4-triazol-3-yl)methyl]oxetan-3-yl}phenyl)-3-oxo-7-(trifluoromethyl)-2,3-dihydro-1H-isoindol-5-yl]methyl}piperidin-3-yl]methyl}piperidin-4-yl)methyl]piperidin-4-yl}methyl)piperazin-1-yl]-2,3-dihydro-1H-isoindole-1,3-dione] | 5 to 50 | < 5 | 35 to 70 | > 70 | – |

Other lines, results leading:

| DC50 (Cbl-b [1]) [nM] | DC50 (Cbl-b [2]) [nM] | Dmax (Cbl-b [2]; maximum degradation observed) [%] | Dmax (Cbl-b [1]) [%] | Cbl-b Degredation Method B Dmax (%) (Cbl-b [2]; maximum degradation observed) | SMILES |
| --- | --- | --- | --- | --- | --- |
| < 5 | < 5 | 35 to 70 | > 70 | – | Cn1cnnc1[C@]1(c2cccc(N3Cc4c(cc(CN5CCC[C@H](CN6CCN(C[C@H]7CC[C@@H](OC8CCN(c9ccc%10c(c9F)CN(C9CCC(=O)NC9=O)C%10=O)CC8)CC7)CC6)C5)cc4C(F)(F)F)C3=O)c2)C[C@@H](C)C1 (stereo partly drawn) [Example 157, 3-[4-fluoro-1-oxo-5-(4-{[(1r,4r)-4-[(4-{[(3S)-1-[(3-oxo-2-{3-[(1r,3s)-3-methyl-1-(4-methyl-4H-1,2,4-triazol-3-yl)cyclobutyl]phenyl}-7-(trifluoromethyl)-2,3-dihydro-1H-isoindol-5-yl)methyl]piperidin-3-yl]methyl}piperazin-1-yl)methyl]cyclohexyl]oxy}piperidin-1-yl)-2,3-dihydro-1H-isoindol-2-yl]piperidine-2,6-dione] |
| < 5 | > 500 | – | < 35 | – | CC1c2nc(N3CCC(O[C@H]4CC[C@H](CN5CCN(Cc6cc7c(c(C(F)(F)F)c6)CN(c6cccc(C8(Cc9nncn9C9CC9)COC8)c6)C7=O)CC5)CC4)CC3)ccc2C(=O)N1C1CCC(=O)NC1=O (some centres unmarked) [Example 211, 3-[7-methyl-5-oxo-2-(4-{[(1r,4r)-4-[(4-{[2-(3-{3-[(4-cyclopropyl-4H-1,2,4-triazol-3-yl)methyl]oxetan-3-yl}phenyl)-3-oxo-7-(trifluoromethyl)-2,3-dihydro-1H-isoindol-5-yl]methyl}piperazin-1-yl)methyl]cyclohexyl]oxy}piperidin-1-yl)-5H,6H,7H-pyrrolo[3,4-b]pyridin-6-yl]piperidine-2,6-dione] |
| 5 to 50 | < 5 | 35 to 70 | 35 to 70 | – | COc1c(N2CCC(O[C@H]3CC[C@H](CN4CCC5(CC4)CN(c4cc6c(c(C(F)(F)F)c4)CN(c4cccc([C@]7(Cc8nncn8C)C[C@@H](C#N)C7)c4)C6=O)C5)CC3)CC2)ccc2c1CN(C1CCC(=O)NC1=O)C2=O (some centres unmarked) [Example 186, (1r,3r)-3-[(4-methyl-4H-1,2,4-triazol-3-yl)methyl]-3-{3-[1-oxo-6-(7-{[(1r,4r)-4-({1-[2-(2,6-dioxopiperidin-3-yl)-4-methoxy-1-oxo-2,3-dihydro-1H-isoindol-5-yl]piperidin-4-yl}oxy)cyclohexyl]methyl}-2,7-diazaspiro[3.5]nonan-2-yl)-4-(trifluoromethyl)-2,3-dihydro-1H-isoindol-2-yl]phenyl}cyclobutane-1-carbonitrile] |
| 50 to 500 | > 500 | – | < 35 | – | Cn1cnnc1CC1(c2cccc(N3Cc4c(cc(N5CCC(CC6CN(c7ccc8c(c7)C(=O)N(C7CCC(=O)NC7=O)C8=O)C6)CC5)cc4C(F)(F)F)C3=O)c2)COC1 (centres unmarked) [Example 134, 2-(2,6-dioxopiperidin-3-yl)-5-[3-({1-[2-(3-{3-[(4-methyl-4H-1,2,4-triazol-3-yl)methyl]oxetan-3-yl}phenyl)-3-oxo-7-(trifluoromethyl)-2,3-dihydro-1H-isoindol-5-yl]piperidin-4-yl}methyl)azetidin-1-yl]-2,3-dihydro-1H-isoindole-1,3-dione] |
| 50 to 500 | < 5 | – | 35 to 70 | C (C ≤ 35) | Cn1cnnc1C[C@]1(c2cccc(N3Cc4c(cc(CN5CCN(C[C@H]6CC[C@H](OC7CCN(c8ccc9c(n8)n(C)c(=O)n9C8CCC(=O)NC8=O)CC7)CC6)CC5(C)C)cc4C(F)(F)F)C3=O)c2)C[C@H](C#N)C1 (some centres unmarked) [Example 300, (1r,3r)-3-(3-{6-[(2,2-dimethyl-4-{[(1r,4r)-4-({1-[1-(2,6-dioxopiperidin-3-yl)-3-methyl-2-oxo-1H,2H,3H-imidazo[4,5-b]pyridin-5-yl]piperidin-4-yl}oxy)cyclohexyl]methyl}piperazin-1-yl)methyl]-1-oxo-4-(trifluoromethyl)-2,3-dihydro-1H-isoindol-2-yl}phenyl)-3-[(4-methyl-4H-1,2,4-triazol-3-yl)methyl]cyclobutane-1-carbonitrile] |
